Reference: patent publication US20100063085A1, “METHOD OF TREATING LEARNING IMPAIRMENT IN DOWN'S SYNDROME SUBJECTS” (University Court of The University of Dundee, priority 2008, published 2010)
Where two headings read alike, the source gives them in different places.

Legend:
Experiment in all cases: biochemical
EFK2 = molecular target: T1, EFK2 (Homo sapiens, UniProt O00418); conditions: read-out: EFK2 activity as percentage of control without inhibitor
T1 sequence (O00418 1-725): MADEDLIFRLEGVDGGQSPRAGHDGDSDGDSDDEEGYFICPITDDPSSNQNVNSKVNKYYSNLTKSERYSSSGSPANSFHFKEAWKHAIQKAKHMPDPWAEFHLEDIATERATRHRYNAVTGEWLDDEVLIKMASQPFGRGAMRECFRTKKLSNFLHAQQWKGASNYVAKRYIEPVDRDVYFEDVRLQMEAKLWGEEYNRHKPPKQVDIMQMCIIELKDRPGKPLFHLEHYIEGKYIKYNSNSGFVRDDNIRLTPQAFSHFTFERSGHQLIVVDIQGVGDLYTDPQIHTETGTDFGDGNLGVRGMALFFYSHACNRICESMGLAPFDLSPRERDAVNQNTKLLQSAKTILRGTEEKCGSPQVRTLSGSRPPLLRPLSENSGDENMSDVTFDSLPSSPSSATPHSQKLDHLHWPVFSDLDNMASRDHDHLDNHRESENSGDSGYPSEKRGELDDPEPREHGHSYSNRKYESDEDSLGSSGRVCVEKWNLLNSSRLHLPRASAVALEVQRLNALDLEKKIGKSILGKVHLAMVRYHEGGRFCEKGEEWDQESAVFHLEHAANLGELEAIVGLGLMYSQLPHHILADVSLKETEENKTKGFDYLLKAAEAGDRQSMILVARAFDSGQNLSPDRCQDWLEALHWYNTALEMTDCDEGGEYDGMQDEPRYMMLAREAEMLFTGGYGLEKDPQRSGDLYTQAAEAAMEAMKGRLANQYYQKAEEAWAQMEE
Procedure: (§1) All assays (25.5 μl) were carried out at room temperature (21° C.) and were linear with respect to time and enzyme concentrations under the conditions used. Assays were performed for 30 minutes except assays for LCK and PKB which were performed for 15 minutes using Multidrop Micro reagent dispensers (Thermo Electron Corporation, Waltham, Mass. 02454, USA) in a 96-well format. The concentration of […] [γ-^33P] ATP (800 cpm/pmol) in the assays was one of three concentrations (5, 20 or 50 μM) in order to be at or below Km for ATP for the enzyme. Assays were initiated with MgATP and stopped by addition of 5 μl of 0.5M orthophosphoric acid. Assays were then harvested onto P81 filterplates using a unifilter harvester (PerkinElmer, Boston, Mass. 02118, USA), with a wash buffer of 50 mM orthophosphoric acid. Filterplates were then air dried overnight. 10 μl of Microscint O was added per well prior to counting for radioactivity.
(§2) The following kinases were assayed against the substrates indicated. Aurora B was assayed against the substrate peptide […] (300 μM), ERK8 and MST-2 were both assayed against MBP (0.33 mg/ml). IKKβ was assayed against the substrate peptide […] (300 μM), JNK3 was assayed against 3 μM ATF2[19-96]. MAPKAP-K3 and PKD1 were both assayed against […] (30 μM), MARK3 was assayed against CHKtide ([…]) substrate peptide (300 μM). MNK1 and MNK2 were both assayed against eIF4E protein (0.5 mg/ml). NEK7 was assayed against […] (300 μM), PIM2 was assayed against […] (300 μM), ΔPH PKBβ-S474D was assayed against Crosstide (30 μM), PLK1 was assayed against […] (300 μM). PRK2 was assayed against Long S6 peptide, […] (30 μM), RSK2 was assayed against […] (30 μM), SRC was assayed against cdc2 peptide, […], (300 μM) and SRPK1 was assayed against peptide […] (300 μM). All enzymes were diluted in 50 mM Tris/HCl pH 7.5, 0.1 mM EGTA, 1 mg/ml BSA, 0.1% β-mercaptoethanol buffer and assayed in an incubation containing 50 mM Tris/HCl pH7.5, 0.1 mM EGTA, 0.1% β-mercaptoethanol, CAMK-1 (5-20 mU) diluted in 50 mM Tris/HCl pH 7.5, 0.1 mM EGTA, 1 mg/ml BSA, 0.1% β-mercaptoethanol is assayed against substrate peptide […] in an incubation containing 50 mM Tris/HCl pH 7.5, 0.1 mM EGTA, 0.5 mM CaCl2, 0.3 μM calmodulin, 0.1% β-mereaptoethanol, 300 μM substrate peptide, 10 mM magnesium acetate and 0.05 mM [^33P-γ-ATP] (500-1000 cpm/pmole). EF2K (5-20 mU) diluted in 50 mM Hepes pH 6.6, 0.1% β-mercaptoethanol, 1 mg/ml BSA is assayed against a substrate peptide […] in an incubation containing 50 mM Hepes pH 6.6, 0.2 mM CaCl2, 0.3 μM Calmodulin, 0.05% b-mercaptoethanol, 300 μM substrate peptide, 10 mM magnesium acetate and 0.05 mM [^33P-γ-ATP] (500-1000 cpm/pmole).

MARK3 = MARK3 (Homo sapiens, UniProt P27448); conditions: read-out: MARK3 activity as percentage of control without inhibitor
Chain of MARK3 (P27448 whole entry, species assumed): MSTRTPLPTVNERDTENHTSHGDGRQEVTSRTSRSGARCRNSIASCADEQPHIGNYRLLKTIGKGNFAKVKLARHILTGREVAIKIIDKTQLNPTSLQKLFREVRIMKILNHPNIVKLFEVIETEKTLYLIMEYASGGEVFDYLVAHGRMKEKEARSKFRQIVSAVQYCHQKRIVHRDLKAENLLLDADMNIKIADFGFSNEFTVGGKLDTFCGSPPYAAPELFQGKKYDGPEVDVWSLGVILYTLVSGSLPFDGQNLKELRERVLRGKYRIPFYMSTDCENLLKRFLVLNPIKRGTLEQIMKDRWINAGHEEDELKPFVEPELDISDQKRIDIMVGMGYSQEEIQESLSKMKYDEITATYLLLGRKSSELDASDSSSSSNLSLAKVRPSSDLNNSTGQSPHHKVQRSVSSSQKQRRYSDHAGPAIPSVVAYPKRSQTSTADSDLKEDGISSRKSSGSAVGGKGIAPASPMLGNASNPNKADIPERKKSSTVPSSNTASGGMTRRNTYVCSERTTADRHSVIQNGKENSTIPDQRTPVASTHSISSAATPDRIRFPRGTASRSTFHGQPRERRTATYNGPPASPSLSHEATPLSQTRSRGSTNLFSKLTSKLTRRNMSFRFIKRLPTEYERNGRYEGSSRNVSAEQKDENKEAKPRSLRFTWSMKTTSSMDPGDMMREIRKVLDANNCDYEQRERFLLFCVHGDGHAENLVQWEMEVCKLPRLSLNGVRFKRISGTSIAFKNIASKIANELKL
Procedure: as §1, §2

Src = Src (Homo sapiens, UniProt P12931); conditions: read-out: Src activity as percentage of control without inhibitor; for remaining activity at 10 µM: inhibitor 10 μM
Chain of Src (P12931 whole entry, species assumed): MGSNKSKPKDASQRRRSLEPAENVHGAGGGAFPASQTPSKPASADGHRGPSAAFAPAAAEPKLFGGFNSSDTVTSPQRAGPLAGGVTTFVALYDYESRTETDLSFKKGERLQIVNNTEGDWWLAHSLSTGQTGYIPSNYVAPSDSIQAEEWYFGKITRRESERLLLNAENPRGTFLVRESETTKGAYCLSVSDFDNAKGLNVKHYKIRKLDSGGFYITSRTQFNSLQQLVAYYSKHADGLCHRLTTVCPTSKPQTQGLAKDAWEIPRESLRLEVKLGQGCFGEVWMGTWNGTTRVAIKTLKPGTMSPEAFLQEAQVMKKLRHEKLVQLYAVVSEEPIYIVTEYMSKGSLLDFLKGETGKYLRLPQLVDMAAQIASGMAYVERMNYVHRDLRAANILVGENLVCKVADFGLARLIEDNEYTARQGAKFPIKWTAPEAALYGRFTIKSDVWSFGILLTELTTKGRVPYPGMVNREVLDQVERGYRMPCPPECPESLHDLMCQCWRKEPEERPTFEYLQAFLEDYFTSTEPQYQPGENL
Procedure: as §1, with “Assays” for “All assays (25.5 μl) were carried out at room temperature (21° C.) and were linear with respect to time and enzyme concentrations under the conditions used. Assays”
as §2

NEK6 = NEK6 (Homo sapiens, UniProt Q9HC98); conditions: read-out: NEK6 activity as percentage of control without inhibitor
Chain of NEK6 (Q9HC98 whole entry, species assumed): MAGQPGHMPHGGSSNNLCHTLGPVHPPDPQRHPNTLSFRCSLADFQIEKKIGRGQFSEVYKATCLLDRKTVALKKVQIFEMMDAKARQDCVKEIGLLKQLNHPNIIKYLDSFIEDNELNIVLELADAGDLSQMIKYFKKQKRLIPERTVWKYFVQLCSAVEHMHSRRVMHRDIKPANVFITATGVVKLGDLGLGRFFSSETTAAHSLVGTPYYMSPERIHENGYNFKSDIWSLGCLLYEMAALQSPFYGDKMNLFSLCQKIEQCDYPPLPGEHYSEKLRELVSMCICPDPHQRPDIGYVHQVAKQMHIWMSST
Procedure: as §1
NEK6 (5-20 mU diluted in 50 mM Tris (pH 7.5), 0.1 mM EGTA, 1 mg/ml BSA, 0.1%, β-Mercaptoethanol) is assayed against NEK6 peptide ([…]) in a final volume of 25.5 μl containing 50 mM Tris (pH 7.5), 0.1 mM EGTA, 0.01% Brij, 0.1%, β-Mercaptoethanol, NEK6 peptide (0.3 mM), 10 mM magnesium acetate and 0.05 mM [^33P- γATP](500-1000 cpm/pmole) and incubated for 30 min at room temperature.

Row | SMILES | remaining activity at 1 µM (EFK2; inhibitor 1 μM) [%] | remaining activity at 10 µM (EFK2; inhibitor 10 μM) [%] | remaining activity at 1 µM (MARK3; inhibitor 1 μM) [%] | remaining activity at 10 µM (MARK3; inhibitor 10 μM) [%] | remaining activity at 1 µM (Src; inhibitor 1 μM) [%] | remaining activity at 10 µM (Src) [%] | remaining activity at 1 µM (NEK6; inhibitor 1 μM) [%] | remaining activity at 10 µM (NEK6; inhibitor 10 μM) [%] | remaining activity at 1 µM (EFK2) [%] | remaining activity at 10 µM (EFK2) [%] | remaining activity at 1 µM (MARK3) [%] | remaining activity at 10 µM (MARK3) [%] | remaining activity at 1 µM (Src) [%] | remaining activity at 1 µM (NEK6) [%] | remaining activity at 10 µM (NEK6) [%]
1 | COc1ccc2c3c([nH]c2c1)C(C)=NCC3 [Harmaline] | 106 | 100 | 99 | 103 | 47 | 65 | 99 | 87 | – | – | – | – | – | – | –
2 | CC1=NCCc2c1[nH]c1cc(O)ccc21 [Harmalol] | 97 | 85 | 93 | 84 | 101 | 83 | 94 | 92 | – | – | – | – | – | – | –
3 | COc1ccc2c(c1)[nH]c1c(C)nccc12 [Harmine] | – | – | – | – | – | – | – | – | 102 | 101 | 86 | 86 | 108 | 96 | 99
